ChEMBL document CHEMBL1136629, “Amphipathic 3-phenyl-7-propylbenzisoxazoles; human pPaR gamma, delta and alpha agonists” (Bioorg Med Chem Lett, 2003)

Experiments:
[1] = target: T1, Peroxisome proliferator-activated receptor gamma (Homo sapiens, UniProt P37231); assay: Agonistic activity was determined in COS1 cells transfected with GAL 4-PPAR gamma receptor; format: functional, cell-based, COS-1
T1 sequence (P37231 whole entry): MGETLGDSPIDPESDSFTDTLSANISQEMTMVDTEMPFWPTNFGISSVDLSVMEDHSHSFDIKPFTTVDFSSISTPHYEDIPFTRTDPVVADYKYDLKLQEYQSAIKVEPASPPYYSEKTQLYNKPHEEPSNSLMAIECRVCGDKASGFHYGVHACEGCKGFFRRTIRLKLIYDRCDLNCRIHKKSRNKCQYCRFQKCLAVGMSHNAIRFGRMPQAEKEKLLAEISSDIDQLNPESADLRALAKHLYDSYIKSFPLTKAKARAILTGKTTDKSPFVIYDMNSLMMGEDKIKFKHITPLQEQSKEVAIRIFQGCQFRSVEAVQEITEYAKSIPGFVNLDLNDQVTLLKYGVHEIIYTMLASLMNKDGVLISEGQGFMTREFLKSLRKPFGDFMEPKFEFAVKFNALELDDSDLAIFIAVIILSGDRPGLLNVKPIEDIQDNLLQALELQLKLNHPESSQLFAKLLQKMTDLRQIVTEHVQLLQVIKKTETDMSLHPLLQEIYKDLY

[2] = target: T2, Peroxisome proliferator-activated receptor alpha (Homo sapiens, UniProt Q07869); assay: Agonistic activity was determined in COS1 cells transfected with GAL 4-PPAR alpha receptor; format: functional, cell-based, COS-1
T2 sequence (Q07869 whole entry): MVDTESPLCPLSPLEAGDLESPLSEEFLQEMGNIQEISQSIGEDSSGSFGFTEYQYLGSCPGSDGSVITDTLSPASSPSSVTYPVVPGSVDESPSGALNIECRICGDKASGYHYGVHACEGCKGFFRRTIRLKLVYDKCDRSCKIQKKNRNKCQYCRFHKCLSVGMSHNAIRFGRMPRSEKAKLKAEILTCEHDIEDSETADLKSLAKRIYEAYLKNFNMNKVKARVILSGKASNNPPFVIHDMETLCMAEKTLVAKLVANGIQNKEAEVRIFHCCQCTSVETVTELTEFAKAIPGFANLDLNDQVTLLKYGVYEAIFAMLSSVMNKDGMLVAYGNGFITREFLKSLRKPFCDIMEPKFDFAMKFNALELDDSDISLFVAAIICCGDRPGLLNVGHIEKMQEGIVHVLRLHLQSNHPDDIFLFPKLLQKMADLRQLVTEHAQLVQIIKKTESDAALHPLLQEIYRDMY

[3] = target: T1, Peroxisome proliferator-activated receptor gamma; assay: In vitro binding affinity towards human peroxisome proliferator activated receptor gamma (PPAR gamma)
[4] = target: T3, Peroxisome proliferator-activated receptor delta (Homo sapiens, UniProt Q03181)
T3 sequence (Q03181 whole entry): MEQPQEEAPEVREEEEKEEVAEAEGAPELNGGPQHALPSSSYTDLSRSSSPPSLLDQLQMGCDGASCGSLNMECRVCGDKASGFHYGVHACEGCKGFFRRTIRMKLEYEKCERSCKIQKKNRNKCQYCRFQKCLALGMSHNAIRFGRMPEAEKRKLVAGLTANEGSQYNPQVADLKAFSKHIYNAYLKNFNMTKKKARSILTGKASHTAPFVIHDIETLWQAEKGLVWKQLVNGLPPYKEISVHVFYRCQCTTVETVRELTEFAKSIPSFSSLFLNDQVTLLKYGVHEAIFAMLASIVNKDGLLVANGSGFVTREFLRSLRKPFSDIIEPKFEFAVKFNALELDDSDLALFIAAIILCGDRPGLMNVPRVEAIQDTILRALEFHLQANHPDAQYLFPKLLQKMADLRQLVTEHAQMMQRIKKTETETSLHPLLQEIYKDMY
Description: In vitro binding affinity towards human peroxisome proliferator activated receptor delta (PPAR delta)

[5] = target: T2, Peroxisome proliferator-activated receptor alpha; assay: In vitro binding affinity towards human peroxisome proliferator activated receptor alpha (PPAR alpha)
[6] = target: T4, Peroxisome proliferator-activated receptor gamma (Homo sapiens) (UniProt P37231); assay: Agonistic transcriptional activity in COS1 cells expressing GAL 4-PPAR gamma at 3 uM; Maximal percent; format: functional, cell-based; details: COS-1
T4 sequence (whole entry): T1 sequence (P37231 whole entry)

[7] = target: T5, Peroxisome proliferator-activated receptor alpha (Homo sapiens) (UniProt Q07869); assay: Agonistic transcriptional activity in COS1 cells expressing GAL 4-PPAR alpha at 3 uM; Maximal percent; format: functional, cell-based; details: COS-1
T5 sequence (whole entry): T2 sequence (Q07869 whole entry)

[8] = AUC of compound for a 2 mpk po dose of the sodium salt in rats.; format: ADME, organism-based; details: rat, plasma, 2 mg/kg
[9] = Bioavailability of compound was determined; format: ADME, organism-based; details: eutheria, in vivo
[10] = target: T3, Peroxisome proliferator-activated receptor delta; assay: Agonistic activity was determined in COS1 cells transfected with GAL 4-PPAR delta receptor; format: functional, cell-based, COS-1

Compound | EC50 [1] [nM] | EC50 [2] [nM] | Ki [3] [nM] | Ki [4] [nM] | Ki [5] [nM] | Emax (% of standard agonist) [6] [%] | activation [7] [%] | AUC [8] [µM·h] | bioavailability [9] [%] | EC50 [10] [nM]
CCCc1c(OCCCCOc2ccc(CCC(=O)O)cc2)ccc2c(-c3ccccc3)noc12 | 485 | 429 | 8.9 | 37.5 | 7.6 |  |  |  |  | 
CCCc1c(OCCCCOc2ccc(CC(=O)O)cc2)ccc2c(-c3ccccc3)noc12 | 60 | 8 | 30 | 93 | 7 |  |  |  |  | 
CCCc1c(OCCCCOc2cccc(OC(C)(C)C(=O)O)c2)ccc2c(-c3ccccc3)noc12 | 100 | 92 | 41 | 110 | 255 |  |  |  |  | 
CCCc1c(OCCCOc2ccc(CCC(=O)O)cc2)ccc2c(-c3ccccc3)noc12 |  |  | 32 | 2 | 7.3 | 99 | 42 |  |  | 
CCCc1c(OCCCCOc2cccc(CC(=O)O)c2)ccc2c(-c3ccccc3)noc12 | 6 | 5 | 3.1 | 0.3 | 7.2 |  |  | 4.2 | 76 | 20
CCCc1c(OCCCCOc2ccc(C(C)(C)C(=O)O)cc2)ccc2c(-c3ccccc3)noc12 | 10 | 2 | 17 | 203 | 23 |  |  |  |  | 
CCCc1c(OCCOc2ccc(CCCC(=O)O)cc2)ccc2c(-c3ccccc3)noc12 |  | 33 | 616 | 156 | 305 | 72 |  |  |  | 
CCCc1c(OCCCCOc2ccc(C(=O)O)cc2)ccc2c(-c3ccccc3)noc12 |  |  | > 5300 | > 14000 | 920 |  |  |  |  | 
CCCc1c(OCCCCOc2ccc(C(C)(C)CC(=O)O)cc2)ccc2c(-c3ccccc3)noc12 | 37 | 53 | 52 | 529 | 213 |  |  |  |  | 
CCCc1c(OCCCSc2ccc(CC(=O)O)cc2Cl)ccc2c(-c3ccccc3)noc12 | 4 | 3 | 11 | 3.7 | 14 |  |  |  |  | 3
CCCc1c(OCCOc2ccc(CCC(=O)O)cc2)ccc2c(-c3ccccc3)noc12 |  |  | 304 | 11 |  |  |  |  |  | 
CCCc1c(OCCCOc2ccccc2CC(=O)O)ccc2c(-c3ccccc3)noc12 |  |  | 498 | 62 | 489 |  |  |  |  | 
CN(CCOc1ccc(CC2SC(=O)NC2=O)cc1)c1ccccn1 (centres undefined) |  |  |  |  |  |  | 3 |  |  | 
CCCc1c(OCCCCOc2ccc(OC(C)(C)C(=O)O)cc2)ccc2c(-c3ccccc3)noc12 | 2 |  | 2.4 | 23 |  |  |  |  |  | 172
CCCc1c(OCCCCOc2ccc(/C=C/C(=O)O)cc2)ccc2c(-c3ccccc3)noc12 | 29 | 13 | 13 | 265 | 18 |  |  |  |  | 640
CCCc1c(OCCCCOc2cccc(C(=O)O)c2)ccc2c(-c3ccccc3)noc12 | 193 | 8 | 100 | 508 | 5.2 |  |  |  |  | 
CCCc1c(OCCCOc2ccccc2CCC(=O)O)ccc2c(-c3ccccc3)noc12 |  |  | 1330 | 3520 | > 33300 |  |  |  |  | 
CCCc1c(OCCCOc2cccc(CC(=O)O)c2)ccc2c(-c3ccccc3)noc12 |  |  | 662 | 26 | 76 |  |  |  |  | 
CCCc1c(OCCCCOc2ccc(OC(C)C(=O)O)cc2)ccc2c(-c3ccccc3)noc12 (centres undefined) | 16 | 2 | 20 | 136 | 47 |  |  |  |  | 
CCCc1c(OCCCOc2ccc(CCCC(=O)O)cc2)ccc2c(-c3ccccc3)noc12 | 156 | 3 | 145 | 38 | 121 |  |  |  |  | 183
CCCc1c(OCCCOc2ccc(OC(C)C(=O)O)cc2)ccc2c(-c3ccccc3)noc12 (centres undefined) | 27 | 2 | 22 | 4.6 | 9.3 |  |  |  |  | 13
CCCc1c(OCCCOc2ccc(/C=C/C(=O)O)cc2)ccc2c(-c3ccccc3)noc12 | 254 |  | 152 | 18 | 50 |  | 56 |  |  | 148
CCCc1c(OCCCCOc2ccc(CC(C)(C)C(=O)O)cc2)ccc2c(-c3ccccc3)noc12 | 20 | 4 | 20 | 317 | 13 |  |  |  |  | 860
CCCc1c(OCCCOc2cccc(CCC(=O)O)c2)ccc2c(-c3ccccc3)noc12 |  |  | 448 | 21 | 53 |  |  |  |  | 
CCCc1c(OCCCCOc2cccc(OCC(=O)O)c2)ccc2c(-c3ccccc3)noc12 | 87 | 248 | 52 | 47 | 133 |  |  |  |  | 
CCCc1c(OCCCCOc2ccccc2CC(=O)O)ccc2c(-c3ccccc3)noc12 |  |  | 348 | 47 | 86 |  |  |  |  | 
CCCc1c(OCCCOc2ccc(CC(=O)O)cc2)ccc2c(-c3ccccc3)noc12 | 194 | 3 |  | 5 | 3 |  |  |  |  | 147
CCCc1c(OCCCCOc2cccc(C(C)(C)C(=O)O)c2)ccc2c(-c3ccccc3)noc12 | 52 | 50 | 26 | 165 | 46 |  |  |  |  | 400
CCCc1c(OCCCCOc2cccc(CCC(=O)O)c2)ccc2c(-c3ccccc3)noc12 |  |  | 115 | 52 | 329 |  |  |  |  | 
CCCc1c(OCCCOc2ccc(OCC(=O)O)cc2)ccc2c(-c3ccccc3)noc12 | 75 | 4 | 34 | 3.7 | 8.1 |  |  |  |  | 16
